Common to all, as to type: biochemical
The target in one assay is T1, JAK3 (Homo sapiens, UniProt P52333).
T1 construct: All enzymes only contain the catalytic domain; His (N); purchased Carna Bioscience, Inc; host or cells: baculovirus expression system
Put plainly: In vitro enzyme assay (cell-free HTRF kinase assay), JAK3. The settings on record: catalytic domain, His-tag; ATP 3 μM, SRCtide 100 nM, reaction 30 min. The method, then: (§1) Kinase buffer [50 mM HEPES (pH 7.5), 1 mM EGTA, 10 mM MgCl2, 2 mM DTT and 0.01% Tween-20) was prepared and dilutions of a compound of formula (I) and other reagents were subsequently made in it. Two times concentrated compound of formula (I) solution: A compound of formula (I) was diluted to 100-fold final concentration in DMSO, followed by 50-fold dilution with Kinase buffer (1% DMSO final concentration). Four times concentrated Substrate/ATP mix solution: Biotin-SRCtide and ATP were diluted to 4-fold final concentration in Kinase buffer. Biotin-SRCtide solution (purchased from Anaspec) was mixed with ATP solution (1:1). Four times concentrated Enzyme solution: JAK1 or JAK2 or JAK3 or TYK2 enzyme [Human baculo virus expressed JAK1, JAK2, JAK3 and TYK2 were purchased from Carna Bioscience, Inc. All enzymes only contain the catalytic domain. JAK1 (aa 850-1154) and TYK2 (aa 871-1187) are expressed with an N-terminally fused GST-tag, and JAK2 and JAK3 with an N-terminally fused His-tag] was diluted to 4-fold final concentration in Kinase buffer and always kept on ice. Detection buffer: LANCE detection buffer (10 times concentrated) was diluted 10-fold in H2O. Four times concentrated stop solution: EDTA was diluted to a concentration of 40 mM in detection buffer. Four times concentrated ULight/Eu-antibody (from Perkin Elmer) mix solution: ULight-Streptavidin was diluted to a concentration of 100 nM (25 ng/mL final concentrations) and Eu-anti-phospho-Tyrosine (PT66) (from Perkin Elmer) was diluted to a concentration of 8 nM (2 ng/mL final concentration) in detection buffer.
(§2) Cell-free in vitro kinase assay was performed in 384 well plates. Two times concentrated compound solution (5 μL) was pipetted into a HTS 384SV Small Volume Plate. Four times concentrated Substrate/ATP mix (2.5 μL) solution was added along with 4 times concentrated Enzyme solution (2.5 μL). Plate was covered with TopSeal-A and incubated at room temperature for indicated time (Table 3). Four times concentrated Stop solution (5 μL, 10 mM final concentration) was added and incubated for 5 minutes at room temperature. Four times concentrated ULight/Eu-antibody mix solution (5 μL) was added and again plate was covered with TopSeal and incubated overnight at 4° C. TopSeal was removed and HTRF signal was measured at 615 nm and […] (excitation at 320 or 340 nm) on Tecan M1000 Multi mode plate reader. Ratio (665 nm/615 nm)×10^4 was calculated and IC50 values were deduced from Graph-pad prism 4.2.
A general note: TR-FRET usually uses a lanthanide donor and a delayed reading to cut background.

The target of another assay is T2, JAK1 (Homo sapiens, UniProt P23458).
T2 construct: JAK1 (aa 850-1154) and TYK2 (aa 871-1187) are expressed with an N-terminally fused GST-tag; GST (N); purchased Carna Bioscience, Inc; host or cells: baculovirus expression system
T2 sequence (P23458 850-1154): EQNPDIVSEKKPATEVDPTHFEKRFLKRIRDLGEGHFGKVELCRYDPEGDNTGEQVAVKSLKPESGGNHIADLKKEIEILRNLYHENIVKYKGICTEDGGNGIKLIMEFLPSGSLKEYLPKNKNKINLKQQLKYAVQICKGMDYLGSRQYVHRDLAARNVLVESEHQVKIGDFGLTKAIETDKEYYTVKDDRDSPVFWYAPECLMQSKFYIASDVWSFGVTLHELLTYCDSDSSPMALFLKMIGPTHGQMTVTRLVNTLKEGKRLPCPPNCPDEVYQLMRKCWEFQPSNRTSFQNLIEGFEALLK
Nature of the assay: In vitro enzyme assay (cell-free HTRF kinase assay), JAK1. The settings on record: catalytic domain aa 850-1154, GST-tag; ATP 60 μM, SRCtide 400 nM, reaction 120 min. On the procedure: as §1, §2

The target in the next assay is T3, JAK2 (Homo sapiens, UniProt O60674).
T3 construct: All enzymes only contain the catalytic domain; His (N); purchased Carna Bioscience, Inc; host or cells: baculovirus expression system
T3 sequence (O60674 849-1124 limits assumed): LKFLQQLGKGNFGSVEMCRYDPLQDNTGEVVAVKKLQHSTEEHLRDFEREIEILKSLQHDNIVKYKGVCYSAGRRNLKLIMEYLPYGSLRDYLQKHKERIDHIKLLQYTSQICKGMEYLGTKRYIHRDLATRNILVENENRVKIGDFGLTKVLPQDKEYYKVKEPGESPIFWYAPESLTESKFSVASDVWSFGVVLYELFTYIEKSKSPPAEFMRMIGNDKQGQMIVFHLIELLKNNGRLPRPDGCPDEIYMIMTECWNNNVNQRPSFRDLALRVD
Nature of the assay: In vitro enzyme assay (cell-free HTRF kinase assay), JAK2. The note with it: catalytic domain, His-tag; ATP 10 μM, SRCtide 25 nM, reaction 30 min. The method, then: as §1, §2

A value given as a limit tells only on which side of the number the result lay.

T1 sequence (P52333 822-1111 limits assumed): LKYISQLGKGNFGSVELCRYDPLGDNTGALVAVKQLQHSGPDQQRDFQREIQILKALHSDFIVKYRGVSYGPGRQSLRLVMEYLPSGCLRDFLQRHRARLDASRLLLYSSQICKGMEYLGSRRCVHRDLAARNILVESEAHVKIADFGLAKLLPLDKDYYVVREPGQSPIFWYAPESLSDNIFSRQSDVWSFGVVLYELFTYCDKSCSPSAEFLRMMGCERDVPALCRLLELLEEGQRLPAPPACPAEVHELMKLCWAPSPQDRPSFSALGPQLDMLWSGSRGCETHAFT

One may read the IC50 as the concentration that gives 50% inhibition. Lower therefore signals higher potency. Turning to `O=C(c1c(Cl)cc(CO)cc1Cl)c1c[nH]c2c(NC(=O)C3CC3)nccc12` [Compound No. 58, N-{3-[2,6-Dichloro-4-(hydroxymethyl)benzoyl]-1H-pyrrolo[2,3-c]pyridin-7-yl}cyclopropanecarboxamide], the IC50 against JAK3, against JAK1 and against JAK2 was less than 1000 nM each time.

`N#Cc1cc(F)c(C(=O)c2c[nH]c3c(NC(=O)C4CC4)nccc23)c(F)c1` [Compound No. 51, N-[3-(4-Cyano-2,6-difluorobenzoyl)-1H-pyrrolo[2,3-c]pyridin-7-yl]cyclopropanecarboxamide]: the IC50 at JAK3 was less than 50 nM; at JAK1, less than 500 nM; against JAK2 it was less than 100 nM.

As to `CC(CO)NC(=O)c1cc(Cl)c(C(=O)n2ccc3c(NC(=O)C4CC4)nccc32)c(Cl)c1` (stereo not drawn) [Compound No. 151, 3,5-Dichloro-4-({4-[(cyclopropylcarbonyl)amino]-1H-pyrrolo[3,2-c]pyridin-1-yl}carbonyl)-N-(1-hydroxypropan-2-yl)benzamide], the IC50 against JAK3 was less than 500 nM; on JAK1, less than 1000 nM; at JAK2, less than 500 nM.

Regarding `O=C(NCCn1cccc1)c1cc(Cl)c(C(=O)n2ccc3c(NC(=O)C4CC4)nccc32)c(Cl)c1` [Compound No. 168, 3,5-Dichloro-4-({4-[(cyclopropylcarbonyl)amino]-1H-pyrrolo[3,2-c]pyridin-1-yl}carbonyl)-N-[2-(1H-pyrrol-1-yl)ethyl]benzamide], the IC50 is less than 500 nM on JAK3, less than 1000 nM at JAK1 and less than 1000 nM against JAK2.

Regarding `CCOC(=O)[C@H](C)NC(=O)c1cc(Cl)c(C(=O)n2ccc3c(NC(=O)C4CC4)nccc32)c(Cl)c1` [Compound No. 141, Ethyl N-[3,5-dichloro-4-({4-[(cyclopropylcarbonyl)amino]-1H-pyrrolo[3,2-c]pyridin-1-yl}carbonyl)benzoyl]alaninate], the IC50 against JAK3, at JAK1 and against JAK2 was less than 1000 nM each time.

Regarding `N#Cc1cc(Cl)c(C(=O)n2ccc3cnc(NC(=O)C4CC4)cc32)c(Cl)c1` [Compound No. 137, N-[1-(2,6-dichloro-4-cyanobenzoyl)-1H-pyrrolo[3,2-c]pyridin-6-yl]cyclopropanecarboxamide], the figures for the IC50 on JAK3, against JAK1 and against JAK2 were less than 500 nM, less than 500 nM and less than 50 nM, respectively.

As for `O=C(NCCO)Nc1cc(Cl)c(C(=O)n2ccc3c(NC(=O)C4CC4)nccc32)c(Cl)c1` [Compound No. 115, N-[1-(2,6-Dichloro-4-{[(2-hydroxyethyl)carbamoyl]amino}benzoyl)-1H-pyrrolo[3,2-c]pyridin-4-yl]cyclopropanecarboxamide], the IC50 at JAK3 is less than 500 nM; at JAK1, less than 1000 nM; against JAK2 it was less than 500 nM.

Turning to `O=C(NCCN1CCCCC1)c1cc(Cl)c(C(=O)n2ccc3c(NC(=O)C4CC4)nccc32)c(Cl)c1` [Compound No. 150, 3,5-Dichloro-4-({4-[(cyclopropylcarbonyl)amino]-1H-pyrrolo[3,2-c]pyridin-1-yl}carbonyl)-N[2-(piperidin-1-yl)ethyl]benzamide], the half-maximal inhibitory concentration (IC50) against JAK3, against JAK1 and against JAK2 was less than 500 nM throughout.

Consider `O=C(c1c(F)cccc1Cl)c1c[nH]c2c(NC(=O)C3CC3)nccc12` [Compound No. 11, N-[3-(2-Chloro-6-fluorobenzoyl)-1H-pyrrolo[2,3-c]pyridin-7-yl]cyclopropanecarboxamide], for which the IC50 on JAK3 was less than 100 nM; against JAK1, less than 500 nM; on JAK2 it was less than 100 nM.

As to `CCNC(=O)c1cc(Cl)c(C(=O)n2ccc3c(NC(=O)C4CC4)nccc32)c(Cl)c1` [Compound No. 93, 3,5-Dichloro-4-({4-[(cyclopropylcarbonyl)amino]-1H-pyrrolo[3,2-c]pyridin-1-yl}carbonyl)-N-ethylbenzamide], the IC50 on JAK3 is less than 1000 nM; on JAK1 it was less than 500 nM; against JAK2 it was less than 1000 nM.

On to `CNC(=O)c1cc(Cl)c(C(=O)c2c[nH]c3c(NC(=O)C4CC4)nccc23)c(Cl)c1` [Compound No. 12, 3,5-Dichloro-4-({7-[(cyclopropylcarbonyl)amino]-1H-pyrrolo[2,3-c]pyridin-3-yl}carbonyl)-N-methylbenzamide], for which the results for the IC50 on JAK3, against JAK1 and at JAK2 were less than 100 nM, less than 500 nM and less than 500 nM, respectively.

For the compound `CCNC(=O)c1cc(F)c(C(=O)c2c[nH]c3c(NC(=O)C4CC4)nccc23)c(F)c1` [Compound No. 60, 4-({7-[(Cyclopropylcarbonyl)amino]-1H-pyrrolo[2,3-c]pyridin-3-yl}carbonyl)-N-ethyl-3,5-difluorobenzamide], the results for the IC50 against JAK3, against JAK1 and at JAK2 were less than 500 nM, less than 500 nM and less than 1000 nM, respectively.

`Nc1cc(Cl)c(C(=O)c2c[nH]c3cnccc23)c(Cl)c1` [Compound No. 3, (4-Amino-2,6-dichlorophenyl)(1H-pyrrolo[2,3-c]pyridin-3-yl)methanone]: the IC50 was less than 1000 nM against JAK3, less than 1000 nM against JAK1 and less than 500 nM at JAK2.

In the case of `O=C(c1c(Cl)cccc1Cl)c1c[nH]c2c(NC(=O)C3CC3)nccc12` [Compound No. 5, N-[3-(2,6-Dichlorobenzoyl)-1H-pyrrolo[2,3-c]pyridin-7-yl]cyclopropanecarboxamide], the IC50 on JAK3, at JAK1 and on JAK2 was less than 500 nM in each case.

With `CNCc1cc(Cl)c(C(=O)c2c[nH]c3c(NC(=O)C4CC4)nccc23)c(Cl)c1` [Compound No. 66, N-(3-{2,6-Dichloro-4-[(methylamino)methyl]benzoyl}-1H-pyrrolo[2,3-c]pyridin-7-yl)cyclopropanecarboxamide], the figures for the IC50 against JAK3, on JAK1 and against JAK2 were less than 50 nM, less than 100 nM and less than 100 nM, respectively.

Take `CCNCc1cc(Cl)c(C(=O)c2c[nH]c3c(NC(=O)C4CC4)nccc23)c(Cl)c1` [Compound No. 67, N-(3-{2,6-Dichloro-4-[(ethylamino)methyl]benzoyl}-1H-pyrrolo[2,3-c]pyridin-7-yl)cyclopropanecarboxamide]: the IC50 against JAK3 is less than 100 nM; against JAK1, less than 100 nM; against JAK2, less than 500 nM.

For `O=C(NCCCN1CCOCC1)c1cc(Cl)c(C(=O)n2ccc3c(NC(=O)C4CC4)nccc32)c(Cl)c1` [Compound No. 149, 3,5-Dichloro-4-({4-[(cyclopropylcarbonyl)amino]-1H-pyrrolo[3,2-c]pyridin-1-yl}carbonyl)-N-[3-(morpholin-4-yl)propyl]benzamide], the IC50 against JAK3 is less than 500 nM; at JAK1 it was less than 500 nM; against JAK2, less than 1000 nM.

Regarding `CC(=O)Nc1nccc2c(C(=O)c3c(Cl)cc(C(=O)NCCN4CCCC4)cc3Cl)c[nH]c12` [Compound No. 44, 4-{[7-(Acetylamino)-1H-pyrrolo[2,3-c]pyridin-3-yl]carbonyl}-3,5-dichloro-N-[2-(pyrrolidin-1-yl)ethyl]benzamide], the IC50 on JAK3, against JAK1 and against JAK2 was less than 1000 nM in each case.

For the compound `O=C(NCCCO)c1cc(F)c(C(=O)c2c[nH]c3c(NC(=O)C4CC4)nccc23)c(F)c1` [Compound No. 62, 4-({7-[(Cyclopropylcarbonyl)amino]-1H-pyrrolo[2,3-c]pyridin-3-yl}carbonyl)-3,5-difluoro-N-(3-hydroxypropyl)benzamide], the IC50 at JAK3 was less than 500 nM; against JAK1, less than 1000 nM; against JAK2, less than 500 nM.

The record behind these values is US8980911B2, “Heterocyclic compounds as protein kinase inhibitors” (Daiichi Sankyo Company, Limited, priority 2011, dated 2015).
